What follows are compounds tested against CK1ε (Homo sapiens, UniProt P49674) (assay: CK1ε kinase assay (Caliper LabChip electrophoretic separation of fluoresceinated peptide substrate and product)). Settings: 200 pM CK1ε, 50 μM ATP, 1.5 μM peptide, 22 hours at room temperature; read-out: CK1ε IC50 range.
Type: biochemical
Procedure: CK1ε and CK1δ Kinase Assays
The kinase assay was performed in V-bottom 384-well plates. […] The reaction was incubated at room temperature for 22 hours and terminated by adding 45 μl of 35 mM EDTA to each sample. The reaction mixture was analyzed on the Caliper LABCHIP®3000 (Caliper, Hopkinton, Mass.) by electrophoretic separation of the unphosphorylated substrate and phosphorylated product. […] Compounds were dissolved at 10 mM in dimethylsulfoxide (DMSO) and evaluated at eleven concentrations. IC50 values were derived by non-linear regression analysis.

Sequence of CK1ε (P49674 whole entry): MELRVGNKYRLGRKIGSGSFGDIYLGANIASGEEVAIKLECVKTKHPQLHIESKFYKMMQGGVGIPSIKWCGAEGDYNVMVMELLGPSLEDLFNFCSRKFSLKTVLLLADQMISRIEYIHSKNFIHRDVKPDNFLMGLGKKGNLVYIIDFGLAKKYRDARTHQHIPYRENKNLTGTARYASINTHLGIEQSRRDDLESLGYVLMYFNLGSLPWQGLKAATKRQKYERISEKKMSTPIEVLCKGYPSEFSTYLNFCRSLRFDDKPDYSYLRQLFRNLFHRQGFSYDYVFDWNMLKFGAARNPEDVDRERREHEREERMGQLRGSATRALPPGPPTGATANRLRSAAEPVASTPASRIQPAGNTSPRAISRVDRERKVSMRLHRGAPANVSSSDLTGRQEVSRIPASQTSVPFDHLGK

IC50, 10 to 100 nM:
CC(C)(NC(=O)N1CCn2nc(-c3cccc(F)c3)c(C(N)=O)c2C1)c1ccc(F)cc1 [Compound 17, 2-(3-Fluorophenyl)-N^5-(2-(4-fluorophenyl)propan-2-yl)-6,7-dihydropyrazolo[1,5-a]pyrazine-3,5(4H)-dicarboxamide]
CC(C)(NC(=O)N1CCn2nc(-c3cccc(F)c3)c(C(N)=O)c2C1)c1ccccc1 [Compound 25, 2-(3-Fluorophenyl)-N^5-(2-phenylpropan-2-yl)-6,7-dihydropyrazolo[1,5-a]pyrazine-3,5(4H)-dicarboxamide]
NC(=O)c1c(-c2cccc(F)c2)nn2c1CN(C(=O)Nc1ccc(F)c(F)c1)CC2 [Compound 29, N^5-(3,4-Difluorophenyl)-2-(3-fluorophenyl)-6,7-dihydropyrazolo[1,5-a]pyrazine-3,5(4H)-dicarboxamide]
NC(=O)c1c(-c2cccc(F)c2)nn2c1CN(C(=O)Nc1cc(Cl)ccc1F)CC2 [Compound 33, N^5-(5-Chloro-2-fluorophenyl)-2-(3-fluorophenyl)-6,7-dihydropyrazolo[1,5-a]pyrazine-3,5(4H)-dicarboxamide]
NC(=O)c1c(-c2cccc(F)c2)nn2c1CN(C(=O)NCc1ccc(Cl)c(Cl)c1)CC2 [Compound 46, N^5-(3,4-Dichlorobenzyl)-2-(3-fluorophenyl)-6,7-dihydropyrazolo[1,5-a]pyrazine-3,5(4H)-dicarboxamide]
COc1ccc(NC(=O)N2CCn3nc(-c4cccc(F)c4)c(C(N)=O)c3C2)cc1OC [Compound 66, N^5-(3,4-Dimethoxyphenyl)-2-(3-fluorophenyl)-6,7-dihydropyrazolo[1,5-a]pyrazine-3,5(4H)-dicarboxamide]
NC(=O)c1c(-c2cccc(F)c2)nn2c1CN(C(=O)Nc1cccnc1)CC2 [Compound 68, 2-(3-Fluorophenyl)-N^5-(pyridin-3-yl)-6,7-dihydropyrazolo[1,5-a]pyrazine-3,5(4H)-dicarboxamide]
NC(=O)c1c(-c2cccc(F)c2)nn2c1CN(C(=O)Nc1cncnc1)CC2 [Compound 84, 2-(3-Fluorophenyl)-N^5-(pyrimidin-5-yl)-6,7-dihydropyrazolo[1,5-a]pyrazine-3,5(4H)-dicarboxamide]
Cc1ccc(NC(=O)N2CCn3nc(-c4cccc(F)c4)c(C(N)=O)c3C2)cn1 [Compound 86, 2-(3-Fluorophenyl)-N^5-(6-methylpyridin-3-yl)-6,7-dihydropyrazolo[1,5-a]pyrazine-3,5(4H)-dicarboxamide]
NC(=O)c1c(-c2cccc(F)c2)nn2c1CN(C(=O)Nc1ccc(F)nc1)CC2 [Compound 87, 2-(3-Fluorophenyl)-N^5-(6-fluoropyridin-3-yl)-6,7-dihydropyrazolo[1,5-a]pyrazine-3,5(4H)-dicarboxamide]
NC(=O)c1c(-c2cccc(F)c2)nn2c1CN(C(=O)Nc1ccc(OC(F)F)cc1)CC2 [Compound 89, N^5-(4-(Difluoromethoxy)phenyl)-2-(3-fluorophenyl)-6,7-dihydropyrazolo[1,5-a]pyrazine-3,5(4H)-dicarboxamide]
NC(=O)c1c(-c2cccc(F)c2)nn2c1CN(C(=O)Nc1ccnc(Cl)c1)CC2 [Compound 90, N^5-(2-Chloropyridin-4-yl)-2-(3-fluorophenyl)-6,7-dihydropyrazolo[1,5-a]pyrazine-3,5(4H)-dicarboxamide]
CC(=O)N1CCC(NC(=O)N2CCn3nc(-c4cccc(F)c4)c(C(N)=O)c3C2)CC1 [Compound 97]
NC(=O)c1c(-c2cccc(F)c2)nn2c1CN(C(=O)NC1CCN(S(=O)(=O)C3CC3)CC1)CC2 [Compound 102, N^5-(1-(Cyclopropylsulfonyl)piperidin-4-yl)-2-(3-fluorophenyl)-6,7-dihydropyrazolo[1,5-a]pyrazine-3,5(4H)-dicarboxamide]
CC(C)(C)NC(=O)N1CCn2nc(-c3cc(F)cc(F)c3)c(C(N)=O)c2C1 [Compound 105, N^5-(tert-Butyl)-2-(3,5-difluorophenyl)-6,7-dihydropyrazolo[1,5-a] pyrazine-3,5(4H)-dicarboxamide]
